Blank lines part the entries; values can stand above or below the compound they belong to.
Columns and labels:
MFM-223 [1] = conditions: 72 h
Method in brief: (§1)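 Breast cancer cell lines in 20 µl suspension were seeded onto 384-well plates pre-loaded with compound dissolved in 5 µl medium, then incubated 72 h. For viability, 2.5 µl CellTiter-Blue was added for 2 h at 37 °C and fluorescence read at 560/590 nm. Each plate was normalised to vehicle and a positive kill control and checked by Z'-factor. EC50 comes from the fitted percent-inhibition dose-response curve, censored at the highest concentration; rows with zero drug sensitivity score were dropped.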

BT-474 [2] = conditions: 72 h
Method in brief: as §1

MDA-MB-468 = conditions: 72 h
Method in brief: as §1

HCC1143 [3] = conditions: 72 h
Method in brief: as §1

HCC1599 = conditions: 72 h
Method in brief: as §1

MDA-MB-231 [4] = conditions: 72 h
Method in brief: as §1

Hs578T [5] = conditions: 72 h
Method in brief: as §1

MFM-223 [6] = conditions: 72 h; remark: listed apart in the source
Method in brief: (§2)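 Seeding of breast cancer cell lines (20 µl suspension) was done into 384-well plates pre-loaded with compound at 5 concentrations, 10-fold apart, covering a compound-specific 10,000-fold range. The plates were incubated for 72 h, read for CellTox Green fluorescence (485/520 nm), and then read for CellTiter-Glo luminescence after 10 min at room temperature. Every plate was normalised to 0.1 % DMSO and a positive kill control. Curve fitting gave the EC50, censored at the top concentration.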

HCC1937 = conditions: 72 h
Method in brief: as §2

BT-474 [7] = conditions: 72 h; remark: listed apart in the source
Method in brief: as §2

SK-BR-3 [8] = conditions: 72 h
Method in brief: as §2

CAL-51 = conditions: 72 h
Method in brief: as §2

HCC1143 [9] = conditions: 72 h; remark: listed apart in the source
Method in brief: as §2

CAL-148 = conditions: 72 h
Method in brief: as §2

HDQ-P1 [10] = conditions: 72 h
Method in brief: as §2

MDA-MB-436 [11] = conditions: 72 h
Method in brief: as §2

MDA-MB-453 [12] = conditions: 72 h
Method in brief: as §2

DU-4475 [13] = conditions: 72 h
Method in brief: as §2

CAL-85-1 [14] = conditions: 72 h
Method in brief: as §2

MDA-MB-231 [15] = conditions: 72 h; remark: listed apart in the source
Method in brief: as §2

Hs578T [16] = conditions: 72 h; remark: listed apart in the source
Method in brief: as §2

BT-549 [17] = conditions: 72 h
Method in brief: as §2

MCF-10A = conditions: 72 h
Method in brief: as §2

HDQ-P1 [18] = conditions: 72 h; remark: listed apart in the source
Method in brief: as §1

MDA-MB-453 [19] = conditions: 72 h; remark: listed apart in the source
Method in brief: as §1

DU-4475 [20] = conditions: 72 h; remark: listed apart in the source
Method in brief: as §1

CAL-85-1 [21] = conditions: 72 h; remark: listed apart in the source
Method in brief: as §1

MFM-223 [22] = assay: normalised viability (% of control), CellTiter-Blue; higher = more viable cells (about 100 = DMSO control); conditions: incubation time: 72 h
Method in brief: (§3)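 Normalised viability is given for a single listed concentration of the series. In 384-well plates, breast cancer cell lines were incubated 72 h with compound, then read with CellTiter-Blue (2 h, 37 °C) at 560/590 nm. Per-plate scaling set vehicle to 100 and a positive kill control to 0, with Z'-factor quality control.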

SK-BR-3 [23] = assay: as above; conditions: incubation time: 72 h
Method in brief: as §3

MDA-MB-436 [24] = assay: as above; conditions: incubation time: 72 h
Method in brief: as §3

Hs578T [25] = assay: as above; conditions: incubation time: 72 h
Method in brief: as §3

BT-549 [26] = assay: as above; conditions: incubation time: 72 h
Method in brief: as §3

CAL-85-1 [27] = conditions: 72 h; remark: listed apart in the source
Description: (§4)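 Drug sensitivity and resistance testing (DSRT) of breast cancer cell lines in 384-well plates, 5 concentrations in 10-fold dilutions over a compound-specific 10,000-fold range. After 72 h, cytotoxicity was read by CellTox Green fluorescence and viability by CellTiter-Glo luminescence (multiplexed), normalised to DMSO and benzethonium chloride controls. EC50 is the inflection point of the fitted dose-response curve (bottom asymptote free, so it can be relative for partial curves) and is censored at the highest tested concentration. Rows with DSS 0 (no meaningful response) were excluded.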

Hs578T [28] = conditions: 72 h; remark: listed apart in the source
Description: as §4

EC50, CellTiter-Blue viability (BT-474 [2]): 740 nM | EC50, CellTiter-Blue viability (MDA-MB-468): 1960 nM | EC50, CellTiter-Blue viability (HCC1143 [3]): 1150 nM | EC50, CellTiter-Blue viability (HCC1599): 1210 nM | EC50, CellTiter-Blue viability (MDA-MB-231 [4]): 1670 nM | EC50, CellTiter-Glo (HCC1937): 8710 nM | EC50, CellTiter-Glo (BT-474 [7]): 2920 nM | EC50, CellTiter-Glo (SK-BR-3 [8]): 594 nM | EC50, CellTiter-Glo (HCC1143 [9]): 1880 nM | EC50, CellTiter-Glo (MDA-MB-436 [11]): 8290 nM | EC50, CellTiter-Glo (MDA-MB-453 [12]): 2920 nM | EC50, CellTiter-Glo (MDA-MB-231 [15]): 8210 nM | EC50, CellTiter-Glo (BT-549 [17]): 2590 nM | EC50, CellTiter-Blue viability (MDA-MB-453 [19]): 460 nM
Compound: COc1cccc2cc(-c3nc([C@H]4CC[C@H](C(=O)O)CC4)n4ncnc(N)c34)[nH]c12 [OSI-027]
EC50, CellTiter-Blue viability (MFM-223 [1]): 275 nM | EC50, CellTiter-Blue viability (Hs578T [5]): 1280 nM | EC50, CellTiter-Glo (MFM-223 [6]): 3170 nM | EC50, CellTiter-Glo (CAL-51): 2220 nM | EC50, CellTiter-Glo (CAL-148): 7160 nM | EC50, CellTiter-Glo (HDQ-P1 [10]): 938 nM | EC50, CellTiter-Glo (DU-4475 [13]): 1480 nM | EC50, CellTiter-Glo (CAL-85-1 [14]): 3800 nM | EC50, CellTiter-Glo (Hs578T [16]): 6720 nM | EC50, CellTiter-Glo (MCF-10A): 4810 nM | EC50, CellTiter-Blue viability (HDQ-P1 [18]): 255 nM | EC50, CellTiter-Blue viability (DU-4475 [20]): 4630 nM | EC50, CellTiter-Blue viability (CAL-85-1 [21]): 1180 nM | normalised viability (MFM-223 [22]; 100 nM): 73.7% | normalised viability (SK-BR-3 [23]; 100 nM): 48.6% | normalised viability (MDA-MB-436 [24]; 100 nM): 74.1% | normalised viability (Hs578T [25]; 100 nM): 84.1% | normalised viability (BT-549 [26]; 100 nM): 71.9% | EC50, CellTox Green (CAL-85-1 [27]): > 10000 nM

Compound: OC[C@H]1O[C@@H](n2cnc3c2N=CNC[C@H]3O)C[C@@H]1O [Pentostatin]
normalised viability (MFM-223 [22]; 100 nM): 95.8% | normalised viability (SK-BR-3 [23]; 100 nM): 97.6% | normalised viability (MDA-MB-436 [24]; 100 nM): 99.1% | normalised viability (Hs578T [25]; 100 nM): 91.5% | normalised viability (BT-549 [26]; 100 nM): 80.9%

EC50, CellTiter-Glo (BT-474 [7]): > 10000 nM
Compound: N#CC[C@H](C1CCCC1)n1cc(-c2ncnc3[nH]ccc23)cn1 [Ruxolitinib]
EC50, CellTiter-Glo (MFM-223 [6]): > 10000 nM | normalised viability (MFM-223 [22]; 100 nM): 93.2% | normalised viability (SK-BR-3 [23]; 100 nM): 85.1% | normalised viability (MDA-MB-436 [24]; 100 nM): 94.5% | normalised viability (Hs578T [25]; 100 nM): 79.2% | normalised viability (BT-549 [26]; 100 nM): 74.5%

EC50, CellTiter-Glo (BT-474 [7]): > 10000 nM
Compound: C=CC[C@@H]1/C=C(\C)C[C@H](C)C[C@H](OC)[C@H]2O[C@@](O)(C(=O)C(=O)N3CCCC[C@H]3C(=O)O[C@H](/C(C)=C/[C@@H]3CC[C@@H](O)[C@H](OC)C3)[C@H](C)[C@@H](O)CC1=O)[C@H](C)C[C@@H]2OC [Tacrolimus]
normalised viability (MFM-223 [22]; 100 nM): 99.2% | normalised viability (SK-BR-3 [23]; 100 nM): 91.8% | normalised viability (MDA-MB-436 [24]; 100 nM): 108% | normalised viability (Hs578T [25]; 100 nM): 109% | normalised viability (BT-549 [26]; 100 nM): 102%

EC50, CellTiter-Blue viability (BT-474 [2]): 0.67 nM | EC50, CellTiter-Blue viability (MDA-MB-468): 0.39 nM | EC50, CellTiter-Blue viability (HCC1143 [3]): 1.62 nM | EC50, CellTiter-Glo (HCC1937): 0.46 nM | EC50, CellTiter-Glo (SK-BR-3 [8]): 0.46 nM | EC50, CellTiter-Glo (HCC1143 [9]): 0.8 nM | EC50, CellTiter-Glo (MDA-MB-436 [11]): 6.71 nM | EC50, CellTiter-Glo (MDA-MB-453 [12]): 1.5 nM | EC50, CellTiter-Glo (BT-549 [17]): 0.32 nM | EC50, CellTiter-Blue viability (MDA-MB-453 [19]): 0.37 nM
Compound: CO[C@H]1C[C@@H]2CC[C@@H](C)[C@@](O)(O2)C(=O)C(=O)N2CCCC[C@H]2C(=O)O[C@H]([C@H](C)C[C@@H]2CC[C@@H](OC(=O)C(C)(CO)CO)[C@H](OC)C2)CC(=O)[C@H](C)/C=C(\C)[C@@H](O)[C@@H](OC)C(=O)[C@H](C)C[C@H](C)/C=C/C=C/C=C/1C [Temsirolimus]
EC50, CellTiter-Blue viability (MFM-223 [1]): 0.18 nM | EC50, CellTiter-Blue viability (Hs578T [5]): 1 nM | EC50, CellTiter-Glo (MFM-223 [6]): 0.77 nM | EC50, CellTiter-Glo (CAL-51): 0.65 nM | EC50, CellTiter-Glo (CAL-148): 1.28 nM | EC50, CellTiter-Glo (HDQ-P1 [10]): 17.9 nM | EC50, CellTiter-Glo (DU-4475 [13]): 1.42 nM | EC50, CellTiter-Glo (CAL-85-1 [14]): 0.67 nM | EC50, CellTiter-Glo (Hs578T [16]): 0.15 nM | EC50, CellTiter-Blue viability (HDQ-P1 [18]): 1.34 nM | EC50, CellTiter-Blue viability (DU-4475 [20]): 2.16 nM | EC50, CellTiter-Blue viability (CAL-85-1 [21]): 0.11 nM | normalised viability (MFM-223 [22]; 10 nM): 49.8% | normalised viability (SK-BR-3 [23]; 10 nM): 50.5% | normalised viability (MDA-MB-436 [24]; 10 nM): 85.8% | normalised viability (Hs578T [25]; 10 nM): 50.2% | normalised viability (BT-549 [26]; 10 nM): 68.2% | EC50, CellTox Green (Hs578T [28]): 1.28 nM

Compound: C[C@]1(c2nc3c(C(N)=O)cccc3[nH]2)CCCN1 [Veliparib]
EC50, CellTiter-Glo (CAL-51): 50 nM | normalised viability (MFM-223 [22]; 100 nM): 89.9% | normalised viability (SK-BR-3 [23]; 100 nM): 72.5% | normalised viability (MDA-MB-436 [24]; 100 nM): 84.1% | normalised viability (Hs578T [25]; 100 nM): 76.7% | normalised viability (BT-549 [26]; 100 nM): 104% | EC50, CellTox Green (CAL-85-1 [27]): > 10000 nM

Compound: CS(=O)(=O)c1ccc(C(=O)Nc2ccc(Cl)c(-c3ccccn3)c2)c(Cl)c1 [Vismodegib]
normalised viability (MFM-223 [22]; 100 nM): 104% | normalised viability (SK-BR-3 [23]; 100 nM): 66.7% | normalised viability (MDA-MB-436 [24]; 100 nM): 85.6% | normalised viability (Hs578T [25]; 100 nM): 80.1% | normalised viability (BT-549 [26]; 100 nM): 112% | EC50, CellTox Green (Hs578T [28]): > 10000 nM

— the supplement of paper PMC4862054
